Where “and” joins values, the source holds several entries; their conditions need not be identical. Identical values can stand only once.
Legend:
[1] = system: human Low Density Lipoprotein; assay: inhibition of copper catalyzed LDL autoxidation (FOX assay); assay type: biochemical
Experimental: The antioxidant performance of test compounds was evaluated by measuring the extent of low density lipoprotein hydroxyperoxide by copper catalyzed autoxidation using a published dye based color assay (FOX Assay, see Zadeh, “Methods in Enzymology”, 300, 58 (1999)). The assay is easily performed and read in a 96-well microtitre plate. Microtitre plate readers assure rapid measurement of optical density which gives precise replicate measurements. Samples are evaluated in duplicate of triplicate (n=2 or n=3) with FOX reagent to indicate the level of LDL-hydroperoxide formed. Samples containing only LDL and copper sulfate without test materials, served as a positive control for comparison with identical mixtures containing test materials (Tables 1-6). Inhibition is characterized by a lower optical density than that obtained without test materials (LDL and copper sulfate alone).
Briefly, the procedure involved mixing human Low Density Lipoprotein (Sigma Chemical Company L2139) at a concentration of between 200-1000 μg/mL in phosphate buffered saline pH−7.4 (Pierce #28372 BupH™ with copper sulfate to a final concentration of 10 μg/mL. Incubation at 25° C. or 37° C., open to air effected oxidation, the mixture was sampled at time zero and between 3 and 20 hours of incubation for measurement of hydroperoxide in the FOX assay. Samples 25-30 μL were diluted with 10 volumes of FOX reagent (ferrous ammonium sulfate and […], see Zadeh, noted above) and allowed to stand for 30 minutes. Thereafter they were read in a microtitre plate reader.
The inhibition of LDL oxidation by tricine, bicine, monocine, vitamin E, glycine-glycine (Good's buffer compound XIV) and seaweed extract was studied in the procedure above. Using the spectrophotometric technique known as the FOX assay, as described in Jiang, Z., et al., “Ferrous Ion Oxidation in Presence of Xylenol Orange for Detection of Lipid Hydroperoxide in Low Density Lipoprotein”, Analytical Biochemistry, Vol. 202, pp. 384-9 (1992), the oxidation of LDL's in the presence of known hydroxyl radical scavengers (vitamin E and Good's buffer glycine-glycine), and in the presence of therapeutic agents in accordance with the present invention (tricine, bicine, seaweed extract), was monitored. […] Norman Good et al., “Hydrogen Ion Buffers For Biological Research,” Biochemistry, vol. 5, p. 467 (1966). […] Table 6 is a comparison of tricine, bicine, monocine and vitamin E oxidation inhibition of LDL at 37° C., average n=3 measurement with standard deviation.

rats = conditions: both, rat, in vivo, po, 14 days
Experimental: It is essential that any amino-acid-based compound used in accordance with the present invention have a low toxicity such that internal use in humans and other mammals is safe and well tolerated. Amino acid-based compounds used in accordance with the invention generally display no acute toxic effects at 1000 mg/Kg in rats after 2 weeks following oral administration. Preferably, amino acid-based compounds used in accordance with the present invention will display no effects at oral doses of at least 2000 mg/Kg in rats. […] For example, a cohort of rats can be fed a given dosage of an amino acid-based compound of general formula (I) and the relative toxic effects of the cohort can be monitored in comparison to a cohort fed a normal diet using standard EPA protocols.
Two cohorts of rats, each consisting of five females and five males, were marked and weighed. Each rat in a single cohort was administered 2000 mg/kg of tricine in a single oral dosage. Survival and body weight of the rats in each cohort was evaluated after 14 days to determine relative acute toxicity. Survival and general pathology was identical for both the control cohort and the tricine-treated cohort.

[2] = system: New Zealand white rabbits; assay: atherosclerotic lesions in thoracic aorta of cholesterol-fed rabbits; assay type: in vivo, rabbit; conditions: 12 weeks
Source text: Ten female new Zealand white rabbits were divided into two groups of five (5) rabbits and subjected to an identical diet of Purina® rabbit chow supplemented with 1% cholesterol. […] A second group of five (5) rabbits received 1% tricine in their drinking water. Both groups were maintained under this feeding protocol for a period of twelve (12) weeks. Plasma samples were taken at study initiation and at two (2) week intervals throughout the study for measurement of total cholesterol. Systemic observations and body weights were regularly recorded. At twelve (12) weeks, the thoracic aorta was harvested from each animal, sliced longitudinally and preserved in 10% neutral formalin for subsequent analysis. Each aorta was individually stained with Sudan IV, and photographed for the extent of atherosclerotic lesions. Comparisons of percent atheroscledrotic lesions on the luminal surface between the groups enabled evaluation of the effect of tricine test article on atherosclerosis in this rabbit model.

[3] = system: hippocampal neurons, CA1 area; assay: gerbil forebrain ischemia (bilateral carotid occlusion): histology of CA1 neuronal damage; assay type: in vivo, Mongolian gerbil; set-up: Total Rating, severity of neuronal damage to CA1 area, individual gerbil: scale not given here; conditions: oral tricine 2000 mg/Kg 60 minutes before and after carotid occlusion, day 5
Experimental: Mongolian gerbils are subjected to bilaterial occlusion of carotid arteries to cause complete forebrain ischemia. The Mongolian gerbil is extensively used as a model of cerebral ischemia because of its unusual cerebral circulation resulting in sensitive and pronounced destruction of hippocampal neuron cells. as a result, bilateral occlusion of carotid arteries causes complete forebrain ischemia. The gerbils were divided into three groups, Group 1 gerbils were sham control and were administered vehicle (control) orally without carotid occlusion. Group 2 received oral tricine treatment at 2000 mg/Kg in vehicle solution both 60 minutes before and after carotid occlusion. Group […] gerbils received vehicle (control) 60 minutes before and after occlusion. The arteries were occluded after a midline cervical incision was made to expose both common carotid arteries. The surgery was performed on a heated surface to maintain body temperature. On completion of surgery, the animals were placed on Vetbed® and allowed to recover under a heat lamp. (Group 1) was subjected to the same surgical procedures except that the carotid arteries were not occluded. The day of surgery is identified as Day 1. Animals were killed on day 5, after completion of locomotor testing, by overdose with anaesthetic and perfusion with saline followed by a solution containing 10% neutral buffered formalin to fix the brain in situ. The brains were removed by dissection, 5 μm sections were taken at the level of the dorsal hippocampus, to coincide with CA1 area, and stained with haematoxylin and eosin. the sections were examined under light microscope, rated for severity of neuronal damage to the CA1 area.

Mongolian gerbils [4] = assay: gerbil forebrain ischemia (bilateral carotid occlusion): locomotor activity; assay type: in vivo, Mongolian gerbil; conditions: individual gerbil, Group 3, approximately 96 hours after surgery
Experimental: Mongolian gerbils are subjected to bilaterial occlusion of carotid arteries to cause complete forebrain ischemia. The Mongolian gerbil is extensively used as a model of cerebral ischemia because of its unusual cerebral circulation resulting in sensitive and pronounced destruction of hippocampal neuron cells. as a result, bilateral occlusion of carotid arteries causes complete forebrain ischemia. The gerbils were divided into three groups, Group 1 gerbils were sham control and were administered vehicle (control) orally without carotid occlusion. Group 2 received oral tricine treatment at 2000 mg/Kg in vehicle solution both 60 minutes before and after carotid occlusion. […] The arteries were occluded after a midline cervical incision was made to expose both common carotid arteries. The surgery was performed on a heated surface to maintain body temperature. On completion of surgery, the animals were placed on Vetbed® and allowed to recover under a heat lamp. (Group 1) was subjected to the same surgical procedures except that the carotid arteries were not occluded. The day of surgery is identified as Day 1. At approximately 96 hours after surgery, animals were tested for changes in locomotor activity, over two (2) consecutive periods of 15 minutes, using an automated cage. The automated cages contained photoactivated beams at two (2) positions (a low height and a high height) that recorded the number of crossings each gerbil made in each of two consecutive 15 minute periods.

[5] = system: hippocampal neurons, CA1 area; assay: gerbil forebrain ischemia (bilateral carotid occlusion): histology of CA1 neuronal damage; assay type: in vivo, Mongolian gerbil; set-up: scale not given here; conditions: Group 3, 6 animals examined
Mongolian gerbils [6] = assay: gerbil forebrain ischemia (bilateral carotid occlusion): locomotor activity; assay type: in vivo, Mongolian gerbil; conditions: individual gerbil, Group 3, approximately 96 hours after surgery, first 15 minute period
[7] = 10 mM, time 0 hours, 37° C., average n=3, none 0.03
[8] = 10 mM, time 3 hours, 37° C., average n=3, none 0.99
[9] = 1% tricine in drinking water, 1% cholesterol diet, Sudan IV stain
[10] = 1% tricine in drinking water, five rabbits, control mean 65

O=C(O)CN(CCO)CCO [Bicine, N,N-bis(hydroxyethyl)glycine]
FOX assay OD (LDL hydroperoxide) [1, 7]: −0.02 | FOX assay OD (LDL hydroperoxide) [1, 8]: 0.02 | FOX assay OD (LDL hydroperoxide) ([1]; Bicine 25 μM, time 0 hours, room temperature, average n = 3): −0.010 | FOX assay OD (LDL hydroperoxide) ([1]; Bicine 25 μM, time 4 hours, room temperature, average n = 3, none 0.295): 0.050 | FOX assay OD (LDL hydroperoxide) ([1]; Bicine 50 μM, time 0 hours, room temperature, average n = 3): −0.007 | FOX assay OD (LDL hydroperoxide) ([1]; Bicine 50 μM, time 4 hours, room temperature, average n = 3, none 0.295): 0.030 | FOX assay OD (LDL hydroperoxide) ([1]; Bicine 100#M, time 0 hours, room temperature, average n = 3): −0.002 | FOX assay OD (LDL hydroperoxide) ([1]; Bicine 100#M, time 4 hours, room temperature, average n = 3, none 0.295): 0.04

O=C(O)CNCCO [Monocine, N-hydroxyethyl glycine]
FOX assay OD (LDL hydroperoxide) [1, 7]: −0.04 | FOX assay OD (LDL hydroperoxide) [1, 8]: 0.05

O=C(O)CNC(CO)(CO)CO [Tricine, N-tris(hydroxymethyl)methyl glycine]
preliminary acute toxicity level (rats): > 2000 mg/kg | FOX assay OD (LDL hydroperoxide) [1, 7]: −0.01 | FOX assay OD (LDL hydroperoxide) [1, 8]: 0.05 | FOX assay OD (LDL hydroperoxide) ([1]; Tricine 25 μM, time 0 hours, room temperature, average n = 3): −0.012 | FOX assay OD (LDL hydroperoxide) ([1]; Tricine 25 μM, time 4 hours, room temperature, average n = 3, none 0.295): 0.061 | FOX assay OD (LDL hydroperoxide) ([1]; Tricine 50 μM, time 0 hours, room temperature, average n = 3): −0.007 | FOX assay OD (LDL hydroperoxide) ([1]; Tricine 50 μM, time 4 hours, room temperature, average n = 3, none 0.295): 0.038 | FOX assay OD (LDL hydroperoxide) ([1]; Tricine 100 μM, time 0 hours, room temperature, average n = 3): 0.0645 | FOX assay OD (LDL hydroperoxide) ([1]; Tricine 100 μM, time 4 hours, room temperature, average n = 3, none 0.295): 0.028 | Arch Area, percent atherosclerotic lesions on luminal surface, individual rabbit [2, 9]: 19% and 39% and 27% and 17% and 22% | Descending Area, percent atherosclerotic lesions on luminal surface, individual rabbit [2, 9]: 21% (2×) and 28% and 8% and 17% | Total Area, percent atherosclerotic lesions on luminal surface, individual rabbit [2, 9]: 20% and 38% and 26% and 14% and 21% | Arch Area, Mean Value ([2]; 1% tricine in drinking water, five rabbits, control mean 63): 25% | Descending Area, Mean Value [2, 10]: 19% | Total Area, Mean Value [2, 10]: 24% | Arch Area, Median Value ([2]; 1% tricine in drinking water, five rabbits, control median 65): 22% | Total Area, Median Value ([2]; 1% tricine in drinking water, five rabbits, control median 67): 21% | Descending Area, Median Value ([2]; 1% tricine in drinking water, five rabbits, control median 68): 21% | reduced plaque deposits in the aorta ([2]; tricine treated rabbits versus control group): 63% | Side 1 Rating, severity of neuronal damage to CA1 area, individual gerbil [3]: 3 (Marked→approximately 75% to 100% of neurons damaged) and 1 (Minimal→up to approximately 25% of neurons damaged) (5×) | Side 2 Rating, severity of neuronal damage to CA1 area, individual gerbil [3]: 3 (Marked→approximately 75% to 100% of neurons damaged) and 1 (Minimal→up to approximately 25% of neurons damaged) (4×) and 0 | Total Rating, severity of neuronal damage to CA1 area, individual gerbil ([3]; sum of both sides): 6 and 2 (4×) and 1 | locomotor activity, beam crossings, High beam, Total (Mongolian gerbils [4]): 71 and 51 and 76 and 56 and 174 | locomotor activity, beam crossings, Low beam, Total (Mongolian gerbils [4]): 665 and 691 and 525 and 615 and 727 and 451 | locomotor activity, beam crossings, Low beam, 15 min (Mongolian gerbils [4]; first 15 minute period): 455 and 559 and 456 and 553 and 543 and 372 | locomotor activity, beam crossings, High beam, 30 min (Mongolian gerbils [4]; second 15 minute period): 15 and 7 and 9 and 16 and 12 and 64 | locomotor activity, beam crossings, Low beam, 30 min (Mongolian gerbils [4]; second 15 minute period): 210 and 132 and 69 and 62 and 184 and 79 | Mean Score for Group ([5]; occluded vehicle Group 7: 4.3): 2.5 | Total Score for Group ([5]; occluded vehicle Group 7: 13 (3 animals)): 15 | locomotor activity, beam crossings, High beam, 15 min (Mongolian gerbils [6]): 56 and 44 (2×) and 67 and 55 and 110
